Columns and labels:
Conditions in all cases: in vivo
Rattus norvegicus [1] = assay: AUC (0 to 6 hrs) Sprague-Dawley rat plasma treated with [14C]brivanib alaninate at 100 mg/kg, po administered as single oral dose by HPLC analysis; type: ADME, organism-based
[2] = Drug excretion in cynomolgus monkey feces treated with [14C]brivanib alaninate at 10 mg/kg, po administered as single dose via gavage by HPLC analysis; type: ADME, organism-based, Macaca fascicularis
Plasma [3] = assay: Drug level in cynomolgus monkey plasma assessed as compound formation treated with [14C]brivanib alaninate at 10 mg/kg, po administered as single dose via gavage measured after 2 hrs by HPLC analysis; type: ADME, organism-based, Macaca fascicularis
[4] = Drug level in Sprague-Dawley rat urine treated with [14C]brivanib alaninate at 100 mg/kg, po administered as single dose via gavage by mass spectrometry; type: ADME, organism-based
Plasma [5] = assay: Drug level in Sprague-Dawley rat plasma assessed as compound formation treated with [14C]brivanib alaninate at 100 mg/kg, po administered as single dose via gavage measured after 1 hr by HPLC analysis; type: ADME, organism-based
Plasma [6] = assay: Drug level in Sprague-Dawley rat plasma assessed as compound formation treated with [14C]brivanib alaninate at 100 mg/kg, po administered as single dose via gavage measured after 2 hrs by HPLC analysis; type: ADME, organism-based
[7] = Drug excretion in human feces treated with [14C]brivanib alaninate at 800 mg, po administered as single dose […] by HPLC analysis; type: ADME, organism-based
Plasma [8] = assay: Drug level in human plasma assessed as compound formation treated with [14C]brivanib alaninate at 800 mg, po administered as single dose via gavage measured after 2 hrs by HPLC analysis; type: ADME, organism-based
Homo sapiens [9] = assay: AUC (0 to 12 hrs) human plasma treated with [14C]brivanib alaninate at 800 mg, po administered as single oral dose by HPLC analysis; type: ADME, organism-based
Plasma [10] = assay: Drug level in human plasma assessed as compound formation treated with [14C]brivanib alaninate at 800 mg, po administered as single dose via gavage measured after 12 hrs by HPLC analysis; type: ADME, organism-based
[11] = Drug excretion in cynomolgus monkey urine treated with [14C]brivanib alaninate at 10 mg/kg, po administered as single dose via gavage by HPLC analysis; type: ADME, organism-based, Macaca fascicularis
Cynomolgus monkey [12] = assay: Drug uptake in cynomolgus monkey plasma treated with [14C]brivanib alaninate assessed as AUC (0 to 12 hrs) of total radio activity at 10 mg/kg, po administered as single oral dose by HPLC analysis; type: ADME, organism-based, Macaca fascicularis
[13] = Drug excretion in human urine treated with [14C]brivanib alaninate at 800 mg, po administered as single dose […] by HPLC analysis; type: ADME, organism-based
Plasma [14] = assay: Drug level in human plasma assessed as compound formation treated with [14C]brivanib alaninate at 800 mg, po administered as single dose via gavage measured after 1 hr by HPLC analysis; type: ADME, organism-based
Plasma [15] = assay: Drug level in cynomolgus monkey plasma assessed as compound formation treated with [14C]brivanib alaninate at 10 mg/kg, po administered as single dose via gavage measured after 1 hr by HPLC analysis; type: ADME, organism-based, Macaca fascicularis
Plasma [16] = assay: Drug level in cynomolgus monkey plasma assessed as compound formation treated with [14C]brivanib alaninate at 10 mg/kg, po administered as single dose via gavage measured after 6 hrs by HPLC analysis; type: ADME, organism-based, Macaca fascicularis
Rattus norvegicus [17] = assay: Drug uptake in Sprague-Dawley rat plasma treated with [14C]brivanib alaninate assessed as AUC (0 to 6 hrs) of total radio activity at 100 mg/kg, po administered as single oral dose by HPLC analysis; type: ADME, organism-based
Homo sapiens [18] = assay: Drug uptake in human plasma treated with [14C]brivanib alaninate assessed as AUC (0 to 12 hrs) of total radio activity at 800 mg, po administered as single oral dose by HPLC analysis; type: ADME, organism-based
[19] = Drug excretion in bile duct-cannulated rat bile treated with [14C]brivanib alaninate at 100 mg/kg, po administered as single dose via gavage by HPLC analysis; type: ADME, organism-based
Plasma [20] = assay: Drug level in cynomolgus monkey plasma assessed as compound formation treated with [14C]brivanib alaninate at 10 mg/kg, po administered as single dose via gavage measured after 4 hrs by HPLC analysis; type: ADME, organism-based, Macaca fascicularis
Plasma [21] = assay: Drug level in human plasma assessed as compound formation treated with [14C]brivanib alaninate at 800 mg, po administered as single dose via gavage measured after 8 hrs by HPLC analysis; type: ADME, organism-based
Plasma [22] = assay: Drug level in cynomolgus monkey plasma assessed as compound formation treated with [14C]brivanib alaninate at 10 mg/kg, po administered as single dose via gavage measured after 12 hrs by HPLC analysis; type: ADME, organism-based, Macaca fascicularis
[23] = Drug excretion in Sprague-Dawley rat feces treated with [14C]brivanib alaninate at 100 mg/kg, po administered as single dose via gavage by HPLC analysis; type: ADME, organism-based
Cynomolgus monkey [24] = assay: AUC (0 to 12 hrs) cynomolgus monkey plasma treated with [14C]brivanib alaninate at 10 mg/kg, po administered as single oral dose by HPLC analysis; type: ADME, organism-based, Macaca fascicularis
Plasma [25] = assay: Drug level in Sprague-Dawley rat plasma assessed as compound formation treated with [14C]brivanib alaninate at 100 mg/kg, po administered as single dose via gavage measured after 6 hrs by HPLC analysis; type: ADME, organism-based
[26] = Drug excretion in bile duct-cannulated cynomolgus monkey bile treated with [14C]brivanib alaninate at 10 mg/kg, po administered as single dose via gavage by HPLC analysis; type: ADME, organism-based, Macaca fascicularis
Plasma [27] = assay: Drug level in human plasma assessed as compound formation treated with [14C]brivanib alaninate at 800 mg, po administered as single dose via gavage measured after 4 hrs by HPLC analysis; type: ADME, organism-based
[28] = Drug excretion in Sprague-Dawley rat urine treated with [14C]brivanib alaninate at 100 mg/kg, po administered as single dose via gavage by HPLC analysis; type: ADME, organism-based
[29] = Drug level in bile duct-cannulated rat bile treated with [14C]brivanib alaninate at 100 mg/kg, po administered as single dose via gavage by mass spectrometry; type: ADME, organism-based
Plasma [30] = assay: Drug level in Sprague-Dawley rat plasma assessed as compound formation treated with [14C]brivanib alaninate at 100 mg/kg, po administered as single dose via gavage measured after 1 hr by mass spectrometry; type: ADME, organism-based
Plasma [31] = assay: Drug level in Sprague-Dawley rat plasma assessed as compound formation treated with [14C]brivanib alaninate at 100 mg/kg, po administered as single dose via gavage measured after 6 hrs by mass spectrometry; type: ADME, organism-based
Plasma [32] = assay: Drug level in Sprague-Dawley rat plasma assessed as compound formation treated with [14C]brivanib alaninate at 100 mg/kg, po administered as single dose via gavage measured after 2 hrs by mass spectrometry; type: ADME, organism-based

Row | Structure (SMILES) | Compound recovery [2] | Compound recovery (Plasma [3]) | Compound recovery [7] | Compound recovery (Plasma [8]) | Compound recovery (Plasma [10]) | Compound recovery [11] | Compound recovery [13] | Compound recovery (Plasma [14]) | Compound recovery (Plasma [15]) | Compound recovery (Plasma [16]) | Compound recovery (Plasma [20]) | Compound recovery (Plasma [21]) | Compound recovery (Plasma [22]) | Compound recovery [23] | Compound recovery [26] | Compound recovery (Plasma [27]) | other results
1 | Cc1c(OC[C@@H](C)OS(=O)(=O)O)cn2ncnc(Oc3ccc4[nH]c(CO)cc4c3F)c12 | 2.4% | 1.5% | 8.3% | 2.9% | 4.1% | 4.9% | 3.6% | 0.7% | 3% | 7.9% | 3.5% | 1.7% | 3% | 4.8% | 10.3% | 3.6% | AUC (Rattus norvegicus [1]): 5443.1 ugequiv/l.hr; Compound recovery [4]: metabolite_detected; Compound recovery (Plasma [5]): 5.8%; Compound recovery (Plasma [6]): 3.1%; AUC (Homo sapiens [9]): 1202.5 ugequiv/l.hr; AUC metabolite/AUC radiolabel (Cynomolgus monkey [12]): 4.7%; AUC metabolite/AUC radiolabel (Rattus norvegicus [17]): 3.9%; AUC metabolite/AUC radiolabel (Homo sapiens [18]): 1.8%; Compound recovery [19]: 1%; AUC (Cynomolgus monkey [24]): 3272.2 ugequiv/l.hr; Compound recovery (Plasma [25]): 4.3%
2 | Cc1cc2c(F)c(Oc3ncnn4cc(OC[C@@H](C)O[C@@H]5O[C@H](C(=O)O)[C@@H](O)[C@H](O)[C@H]5O)c(C)c34)ccc2[nH]1 | metabolite_not_detected | 2.2% | metabolite_not_detected | 2.3% | metabolite_not_detected | 0.3% | 1.1% | 2.6% | 7.2% | 0.9% | 1.9% | metabolite_not_detected | metabolite_not_detected | metabolite_not_detected | 0.6% | metabolite_not_detected | Compound recovery [28]: metabolite_not_detected; Compound recovery [29]: metabolite_detected; Compound recovery (Plasma [30]): metabolite_detected; Compound recovery (Plasma [31]): metabolite_detected; Compound recovery (Plasma [32]): metabolite_detected
